Test results reported in patent US9597283B2, “Injectable depot formulation comprising optically active tolvaptan and process of producing the same” (OTSUKA PHARMACEUTICAL CO., LTD., priority 2012, dated 2017).

Experiments:
[1] = dissolution test of tolvaptan powders; type: physicochemical; conditions: Test Example 3; crystal powders; 0.1 g in 500 mL polysorbate 80 / phosphate solution pH 7.4; sampling up to 48 hours; FIG. 5
Protocol: The dissolution test of each of the R- and S-tolvaptan SD powders of Examples 1 and 2, tolvaptan (racemic compound) SD powders of Comparative Examples 1 to 6, and tolvaptan (racemic compound) crystal powder of Comparative Example 7 was performed (FIGS. 2 to 4). In the dissolution test method, the R- and S-tolvaptan SD powders, tolvaptan (racemic compound) SD powders, and tolvaptan (racemic compound) crystal powder were weighed out in individual amounts of 0.1 g, and added to a solution (500 mL) for dissolution test shown in Table 2. None of the tolvaptans in an amount weighed above were dissolved in the solvent for dissolution test, and were fully suspended. Sequential sampling was performed 0.083, 0.167, 0.5, 1, 2, 4, 6, 8, 12, 24, 48, and 144 hours after addition.
The dissolution test of each of the R- and S-tolvaptan crystal powders was performed (FIG. 5). As a control, the result of Comparative Example 7 in Test Example 2 above was plotted. In the dissolution test method, an R-tolvaptan crystal powder (mean particle size: 34.0 μm) or an S-tolvaptan crystal powder (mean particle size: 35.8 μm) was weighed out in an amount of 0.1 g, and added to the solution for the dissolution test (500 mL) shown in Table 2 above. None of the tolvaptans in an amount weighed above were dissolved in the solution for dissolution test, and were fully suspended. […]

[2] = in vitro metabolic stability test, rat liver homogenate (S9 fraction); type: in vitro ADME; conditions: 100 nM, sampling 5, 10, 30, 60 minutes, LC-MS/MS, FIG. 1 (2)
Protocol: (§1) Using human and rat liver homogenates (S9 fractions), the in vitro metabolic stability test of tolvaptan (racemic compound), R-tolvaptan, and S-tolvaptan was performed. The concentration of each evaluated compound was set to 100 nM, and the concentration sampling of each compound in a reaction mixture was conducted over time, i.e., 5, 10, 30, and 60 minutes after addition, and measured by LC-MS/MS (FIGS. 1 (1) and (2)).

[3] = in vitro metabolic stability test, human liver homogenate (S9 fraction); type: in vitro ADME; conditions: 100 nM, sampling 5, 10, 30, 60 minutes, LC-MS/MS, FIG. 1 (1)
Protocol: as §1

Structure (SMILES): Cc1ccccc1C(=O)Nc1ccc(C(=O)N2CCC[C@@H](O)c3cc(Cl)ccc32)c(C)c1 [R-tolvaptan, R-(+)-7-chloro-5-hydroxy-1-[2-methyl-4-(2-methylbenzoylamino)benzoyl]-2,3,4,5-tetrahydro-1H-benzazepine]
- dissolution amount [1]: slightly higher than that of the tolvaptan (racemic compound) crystal of Comparative Example 7, and remained fairly constant
- in vitro metabolic stability (disappearance over time) [2]: disappeared slowly compared to tolvaptan (racemic compound) or S-tolvaptan, and had high metabolic stability

Structure (SMILES): Cc1ccccc1C(=O)Nc1ccc(C(=O)N2CCC[C@H](O)c3cc(Cl)ccc32)c(C)c1 [S-tolvaptan, S-(−)-7-chloro-5-hydroxy-1-[2-methyl-4-(2-methylbenzoylamino)benzoyl]-2,3,4,5-tetrahydro-1H-benzazepine]
- in vitro metabolic stability (disappearance over time) [3]: disappeared slowly compared to tolvaptan (racemic compound) or R-tolvaptan, and had high metabolic stability
- dissolution amount [1]: slightly higher than that of the tolvaptan (racemic compound) crystal of Comparative Example 7, and remained fairly constant
